Consider 34 molecules from patent US9233979B2, “Compounds that are ERK inhibitors” (Merck Sharp & Dohme Corp., priority 2012, dated 2016).

Each structure is given as a SMILES string.

Sequence of phosphorylated active hERK2 enzyme (P28482 whole entry): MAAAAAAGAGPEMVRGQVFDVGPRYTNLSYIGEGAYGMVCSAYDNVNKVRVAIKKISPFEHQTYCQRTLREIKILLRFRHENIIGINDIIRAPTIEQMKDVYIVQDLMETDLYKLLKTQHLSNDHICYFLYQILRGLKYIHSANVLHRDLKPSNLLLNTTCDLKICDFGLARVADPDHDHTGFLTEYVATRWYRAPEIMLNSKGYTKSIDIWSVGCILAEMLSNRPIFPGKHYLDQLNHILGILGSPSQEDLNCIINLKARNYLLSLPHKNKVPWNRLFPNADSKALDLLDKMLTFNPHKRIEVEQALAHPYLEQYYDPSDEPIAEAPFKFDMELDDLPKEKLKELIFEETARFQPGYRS

For one experiment, the target named is phosphorylated active hERK2 enzyme (Homo sapiens (Human), UniProt P28482). Kind of experiment: Active Human ERK2 (hERK2) Activity Assay (IMAP-FP). In kind it is biochemical. Particulars: Table 5, 0.5 nM hERK2, 30 μM ATP, 10 point titration, read-out: AERK2 IC50. In outline:
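IMAP fluorescence-polarization kinase assay: 0.5 nM activated hERK2 with 900 nM unlabeled plus 80 nM labeled peptide and 30 μM ATP, reacted 60 min. Quenched with IMAP beads in binding buffer with 24 mM NaCl; FP read after 60 min equilibration.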
For the molecule `COC[C@H](C)NC(=O)Nc1cc2[nH]nc(N3CCOCC3)c2cn1` [Example 12, 1-[(1S)-2-methoxy-1-methylethyl]-3-(3-morpholin-4-yl-1H-pyrazolo[4,3-c]pyridin-6-yl)urea], the IC50 (commonly the concentration needed to halve the response being measured) came out at 51.6 nM.
The same measure, in the same setting: then `C[C@@H](NC(=O)Nc1cc2[nH]nc(N3CCC3)c2cn1)c1ccccc1` [Example 25, 1-(3-azetidin-1-yl-1H-pyrazolo[4,3-c]pyridin-6-yl)-3-[(1R)-1-phenylethyl]urea], with 4.78 nM; and `CCNc1n[nH]c2cc(NC(=O)N[C@H](C)c3ccccc3)nc(C)c12` [Example 38, 1-[3-(ethylamino)-4-methyl-1H-pyrazolo[4,3-c]pyridin-6-yl]-3-[(1R)-1-phenylethyl]urea], with 13.9 nM; and `C[C@@H](NC(=O)Nc1cc2[nH]nc(NS(=O)(=O)CC3CC3)c2cn1)c1ccccc1` [Example 55, 1-cyclopropyl-N-[6-({[(1R)-1-phenylethyl]carbamoyl}amino)-1H-pyrazolo[4,3-c]pyridin-3-yl]methanesulfonamide], with 88.8 nM.
The same measure, in the same setting: then `COC1CN(c2n[nH]c3cc(NC(=O)N[C@H](C)c4ccccc4)ncc23)C1` [Example 22, 1-[3-(3-methoxyazetidin-1-yl)-1H-pyrazolo[4,3-c]pyridin-6-yl]-3-[(1R)-1-phenylethyl]urea], with 8.75 nM.
As to `C[C@@H](NC(=O)Nc1cc2[nH]nc(NS(=O)(=O)C3CCC3)c2cn1)c1ccccc1` [Example 53, N-[6-({[(1R)-1-phenylethyl]carbamoyl}amino)-1H-pyrazolo[4,3-c]pyridin-3-yl]cyclobutanesulfonamide], the IC50 turned out to be 424 nM.

The same experiment, now with this note: Table 6, 0.5 nM hERK2, 30 μM ATP, 10 point titration, read-out: AERK2 IC50.
As for `C[C@@H](NC(=O)Nc1cc2[nH]nc(N[C@H]3CCOC3)c2cn1)c1ccccc1` [Example 77, 1-[(1R)-1-phenylethyl]-3-{3-[(3S)-tetrahydro-furan-3-ylamino]-1H-pyrazolo[4,3-c]-pyridin-6-yl}urea], the IC50 was determined as 2.1 nM.
On to `Cc1nnsc1C(=O)Nc1n[nH]c2cc(NC(=O)N[C@H](C)c3ccccc3)ncc12` [Example 200, 4-methyl-N-[6-({[(1R)-1-phenylethyl]-carbamoyl}amino)-1H-pyrazolo[4,3-c]pyridin-3-yl]-1,2,3-thiadiazole-5-carboxamide], for which the IC50 is 1.1 nM.
Still for that read-out and setting: then `CC(=O)N(C)c1n[nH]c2cc(NC(=O)N[C@H](C)c3ccccc3)ncc12` [Example 349, N-methyl-N-[6-({[(1R)-1-phenyl-ethyl]carbamoyl}-amino)-1H-pyrazolo[4,3-c]-pyridin-3-yl]-acetamide], with 484 nM.
`COC(=O)Nc1n[nH]c2cc(NC(=O)NC3COc4ccccc4C3)ncc12` (stereo not shown) [Example 294, methyl {6-[(3,4-dihydro-2H-chromen-3-ylcarbamoyl)amino]-1H-pyrazolo[4,3-c]pyridin-3-yl}-carbamate]: the IC50 came to 26.4 nM.
`[2H]C([2H])([2H])C(=O)Nc1n[nH]c2cc(NC(=O)N[C@H](C)c3ccccc3)ncc12` [Example 115, (R)-N-(6-(3-(1-phenylethyl)ureido)-1H-pyrazolo[4,3-c]pyridin-3-yl)(acetamide-D3)]: the IC50 is 0.8 nM.
Same read-out and setting: then `COC(=O)Nc1n[nH]c2cc(NC(=O)N[C@H](C)c3ccc(Cl)c(Cl)c3)ncc12` [Example 302, methyl [6-({[(1R)-1-(3,4-dichloro-phenyl)ethyl]-carbamoyl}amino)-1H-pyrazolo[4,3-c]pyridin-3-yl]-carbamate], with 0.7 nM.
Take `CC(C)(O)[C@@H](NC(=O)Nc1cc2[nH]nc(N)c2cn1)c1ccc(F)cc1` [Example 443, 1-(3-amino-1H-pyrazolo[4,3-c]-pyridin-6-yl)-3-[(1S)-1-(4-fluorophenyl)-2-hydroxy-2-methylpropyl]urea]: the IC50 was determined as 0.7 nM.
Take `C[C@@H](NC(=O)Nc1cc2[nH]nc3c2c(n1)COC(=O)N3)c1ccccc1` [Example 368, 1-(8-oxo-2,6,8,9-tetrahydro-7-oxa-1,2,5,9-tetraazabenzo[cd]-azulen-4-yl)-3-[(1R)-1-phenylethyl]urea]: the IC50 turned out to be 1.1 nM.
Same read-out and setting: for `C[C@@H](NC(=O)Nc1cc2[nH]nc(N[C@H](C)C(F)F)c2cn1)c1ccccc1` [Example 355, 1-(3-{[(1R)-2,2-difluoro-1-methyl-ethyl]amino}-1H-pyrazolo[4,3-c]-pyridin-6-yl)-3-[(1R)-1-phenylethyl]urea] the value was 2.9 nM; for `C[C@@H](NC(=O)Nc1cc2[nH]nc(NC(=O)c3ccccn3)c2cn1)c1ccccc1` [Example 212, N-[6-({[(1R)-1-phenylethyl]-carbamoyl}amino)-1H-pyrazolo[4,3-c]pyridin-3-yl]-pyridine-2-carboxamide], 11.7 nM.
As to `CC1=NOC(CNc2n[nH]c3cc(NC(=O)N[C@H](C)c4ccccc4)ncc23)C1` (stereo partly drawn) [Example 173, 1-(3-{[(3-methyl-4,5-dihydro-isoxazol-5-yl)-methyl]amino}-1H-pyrazolo[4,3-c]-pyridin-6-yl)-3-[(1R)-1-phenylethyl]urea], the half-inhibitory concentration (IC50) was determined as 5.8 nM.
Turning to `CC(C)(O)[C@@H](NC(=O)Nc1cc2[nH]nc(N3CCC(F)(F)CC3)c2cn1)c1ccccc1` [Example 366, 1-[3-(4,4-difluoropiperidin-1-yl)-1H-pyrazolo[4,3-c]pyridin-6-yl]-3-[(1S)-2-hydroxy-2-methyl-1-phenylpropyl]urea], the IC50 amounted to 0.4 nM.
Regarding `CCNc1n[nH]c2cc(NC(=O)NC(C)c3ccc(F)c(F)c3)ncc12` (stereo not shown) [Example 251, 1-[1-(3,4-difluoro-phenyl)ethyl]-3-[3-(ethylamino)-1H-pyrazolo[4,3-c]-pyridin-6-yl]urea], the IC50 came out at 3.2 nM.
For the molecule `COC[C@@H](NC(=O)Nc1cc2[nH]nc(Nc3ccccc3Cl)c2cn1)c1ccccc1` [Example 120, 1-{3-[(2-chlorophenyl)-amino]-1H-pyrazolo[4,3-c]pyridin-6-yl}-3-[(1S)-2-methoxy-1-phenylethyl]urea], the IC50 worked out at 27.2 nM.
For the molecule `C[C@@H](NC(=O)Nc1cc2[nH]nc(N[C@@H]3COC[C@H]3F)c2cn1)c1ccccc1` [Example 88, 1-(3-{[(3R,4S)-4-fluorotetrahydrofuran-3-yl]amino}-1H-pyrazolo[4,3-c]-pyridin-6-yl)-3-[(1R)-1-phenylethyl]urea], the IC50 came to 3.6 nM.
Same read-out and setting: for `COCC1CN(c2n[nH]c3cc(NC(=O)N[C@H](C)c4ccccc4)ncc23)C1` [Example 81, 1-{3-[3-(methoxy-methyl)azetidin-1-yl]-1H-pyrazolo[4,3-c]-pyridin-6-yl}-3-[(1R)-1-phenylethyl]-urea] the value was 8.5 nM; for `CCNc1n[nH]c2cc(NC(=O)NCC(C)c3ccccc3)ncc12` (stereo not shown) [Example 226, 1-[3-(ethylamino)-1H-pyrazolo[4,3-c]pyridin-6-yl]-3-(2-phenylpropyl)-urea], 17 nM.
For the molecule `CC(C)(O)[C@@H](NC(=O)Nc1cc2[nH]nc(N3CCOCC3)c2c(CO)n1)c1ccccc1` [Example 109, 1-[4-(hydroxymethyl)-3-morpholin-4-yl-1H-pyrazolo[4,3-c]-pyridin-6-yl]-3-[(1S)-2-hydroxy-2-methyl-1-phenylpropyl]urea], the IC50 came out at 0.3 nM.
Same read-out and setting: for `C[C@@H](NC(=O)Nc1cc2[nH]nc(NC(=O)c3ccco3)c2cn1)c1ccccc1` [Example 207, N-[6-({[(1R)-1-phenylethyl]-carbamoyl}amino)-1H-pyrazolo[4,3-c]pyridin-3-yl]-furan-2-carboxamide] the value was 4.6 nM; for `C[C@@H](NC(=O)Nc1cc2[nH]nc(NC(=O)CN(C)C)c2cn1)c1ccccc1` [Example 208], 27.8 nM; for `CC(C)(O)[C@@H](NC(=O)Nc1cc2[nH]nc(NC(=O)N3CCC3)c2cn1)c1ccc(F)cc1` [Example 130, N-[6-({[(1S)-1-(4-fluorophenyl)-2-hydroxy-2-methylpropyl]-carbamoyl}amino)-1H-pyrazolo[4,3-c]pyridin-3-yl]-azetidine-1-carboxamide], 0.5 nM.
As to `CC(Nc1n[nH]c2cc(NC(=O)N[C@H](COC(F)F)c3ccccc3)ncc12)C(F)(F)F` (stereo partly drawn) [Example 428, 1-[(1S)-2-(difluoromethoxy)-1-phenylethyl]-3-{3-[(2,2,2-trifluoro-1-methylethyl)-amino]-1H-pyrazolo[4,3-c]-pyridin-6-yl}urea], the IC50 worked out at 1.3 nM.
Still for that read-out and setting: for `CCNc1n[nH]c2cc(NC(=O)N[C@H](c3ccccc3)[C@@H]3CCCO3)ncc12` [Example 151, 1-[3-(ethylamino)-1H-pyrazolo[4,3-c]pyridin-6-yl]-3-{(R)-phenyl[(2S)-tetrahydrofuran-2-yl]methyl}urea] the value was 315 nM; for `CCNc1n[nH]c2cc(NC(=O)NCc3ncccc3Cl)ncc12` [Example 278, 1-[(3-chloro-pyridin-2-yl)-methyl]-3-[3-(ethylamino)-1H-pyrazolo[4,3-c]-pyridin-6-yl]urea], 21.8 nM.
Same read-out and setting: then `CNc1n[nH]c2cc(NC(=O)N[C@H](c3ccccc3)[C@H]3CCCO3)ncc12` [Example 147, 1-(3-(methylamino)-1H-pyrazolo[4,3-c]pyridin-6-yl)-3-((R)-phenyl((R)-tetrahydrofuran-2-yl)methyl)urea], with 246 nM.
On the same count and under the same terms, then `COC(=O)Nc1n[nH]c2cc(NC(=O)N[C@@H](c3ccc(F)cc3)C3(O)CCC3)ncc12` [Example 386, methyl [6-({[(S)-(4-fluorophenyl)(1-hydroxycyclobutyl)methyl]carbamoyl}amino)-1H-pyrazolo[4,3-c]-pyridin-3-yl]-carbamate], with 0.4 nM.
For the molecule `C[C@@H](NC(=O)Nc1cc2[nH]nc(NC3=CC(=O)CC3)c2cn1)c1ccccc1` [Example 73, (R)-1-(3-((3-oxocyclopent-1-en-1-yl)amino)-1H-pyrazolo[4,3-c]pyridin-6-yl)-3-(1-phenylethyl)urea], the IC50 came out at 39.2 nM.
On the same count and under the same terms, then `C[C@@H](O)[C@@H](NC(=O)Nc1cc2[nH]nc(N3CCc4scnc4C3)c2cn1)c1ccccc1` [Example 64, 1-[3-(6,7-dihydro[1,3]thiazolo-[4,5-c]pyridin-5(4H)-yl)-1H-pyrazolo[4,3-c]pyridin-6-yl]-3-[(1S,2R)-2-hydroxy-1-phenylpropyl]urea], with 5.6 nM.
